In US20220170944A1, “MATERIALS AND METHODS FOR IDENTIFYING AND TREATING EOSINOPHILIC DISORDERS” (The Regents of the University of California, priority 2019, published 2022):

Assays:
[1] = cited from earlier work
[2] = tested on: EoE fibroblasts and esophageal epithelial cells; assay: COMP expression in cells treated in vitro with recombinant TGFb1; assay type: cell-based, human; details: p<0.0001
Procedure: Primary esophageal fibroblasts from EoE patients were used. The fibroblast were treated in vitro with recombinant TGFb1. […] Biopsies were scored using a standardized histology score. […] COMP expression correlated with fibrosis (r=[…]), basal zone hyperplasia (r=0.59, p<0.0001), and eosinophilia (r=0.54, p<0.0001).

In the case of `CCc1ccc(CCOc2ccc(CC3SC(=O)NC3=O)cc2)nc1` (centres unmarked) [Pioglitazone, pioglitazone], the “tolerability / drug-related adverse events compared to placebo” value [1] is given as “no major drug-related adverse events”.

In the case of “TGFb1: recombinant TGFb1, the canonical pro-fibrotic molecule transforming growth factor-beta-1”, the COMP expression induction [2] is reported as “up to 6000 fold”.
